The experiment has as its system heparinized bovine blood. Briefly: In-vitro clot weight on drug coated PET fabric disks in heparinized bovine blood. Conditions: PVDF-HFP/drug 90/10 dip coated PET disks, 37° C., ACT about 190, FIG. 18. As for the experimental part: A solution of PVDF-HFP and DOAC (direct oral anticoagulant) was prepared in 80/20 acetone/DMSO (wt/wt). The PVDF-HFP drug ratio was 90/10 (wt/wt) and the solution solids was 0.7%. […] diameter WM PET fabric disks were dip coated into the polymer/drug solution at a dip speed of […]. The coated disks were dried for […] at 125° C. in a convection oven. The drug coated disks and PVDF-HFP only control disks were placed in cups containing heparinized bovine blood adjusted to an ACT of about 190 using protamine. The cups were placed on an orbital shaker incubator at 37° C. and disks were removed at various time points and imaged. The disks were then dried and weighed to determine clot wt.

We go through 2 compounds from patent publication US20250090174A1, “LEFT ATRIAL APPENDAGE CLOSURE DEVICE WITH DRUG-ELUTING COMPOSITION” (BOSTON SCIENTIFIC SCIMED, INC., priority 2023, published 2025).

Consider `COc1ccc(-n2nc(C(N)=O)c3c2C(=O)N(c2ccc(N4CCCCC4=O)cc2)CC3)cc1` [Apixaban], for which the “thrombus (clot weight) compared to the PVDF-HFP coated control” value is reported as “significantly less thrombus”.
On to `O=C(NC[C@H]1CN(c2ccc(N3CCOCC3=O)cc2)C(=O)O1)c1ccc(Cl)s1` [Rivaroxaban, 5-Chloro-N-({(5S)-2-oxo-3-[4-(3-oxo-4-morpholinyl)phenyl]-1,3-oxazolidin-5-yl}methyl)-2-thiophenecarboxamide], for which the “thrombus (clot weight) compared to the PVDF-HFP coated control” value is “significantly less thrombus”.
